Target: T1, TNFα high affinity receptors on L929 fibroblasts (Mus musculus, UniProt P25118)
T1 construct: host or cells: L929 mouse fibroblasts
T1 sequence (P25118 30-454): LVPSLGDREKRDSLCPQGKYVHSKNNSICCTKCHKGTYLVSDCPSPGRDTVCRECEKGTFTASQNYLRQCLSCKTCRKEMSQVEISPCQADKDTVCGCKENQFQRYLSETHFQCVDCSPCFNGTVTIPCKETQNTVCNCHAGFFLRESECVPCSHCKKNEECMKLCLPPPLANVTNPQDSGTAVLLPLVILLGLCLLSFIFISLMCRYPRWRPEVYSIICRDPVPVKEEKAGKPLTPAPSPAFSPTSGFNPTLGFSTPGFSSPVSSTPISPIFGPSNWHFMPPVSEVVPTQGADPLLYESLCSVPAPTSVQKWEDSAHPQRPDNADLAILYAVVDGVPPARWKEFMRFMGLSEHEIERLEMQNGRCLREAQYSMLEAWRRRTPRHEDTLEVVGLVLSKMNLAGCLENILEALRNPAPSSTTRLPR
Test: 125I-TNFα binding to high affinity receptors on L929 fibroblasts
Conditions: 90 min, N=6
Text: Few reports in the literature indicate interaction at these receptor sites other than by peptides or antibodies. […] Blocking these receptors is desirable because the entire inflammation cascade of events is triggered by the early release of TNFa and IL-1. […] Radioisotopes were obtained from New England Nuclear [Dupont, Boston, MA] and substrates and co- factors were obtained from Sigma Chemical Co. [St. Louis, MO]. […] Cell lines were obtained from American Type Culture Collection [Rockville, MD]. In Vivo Tests Anti-inflammatory screen in mice: Male CF male mice weighing 28-32g obtained from Jackson Lab. [Bar Harbor, […]] were used to screen agents at 8 or 16 mg/kg intraperitoneal [I.P.] x 2 administered 3 hr and 30 min prior to administering the irritant, according to Winter's protocol. Evaluation of the induced edema was made by injecting 2% carrageenan in 0.9% saline into the plantar region of the foot. The opposite foot injected with 0.9% isotonic saline was used as a base line. […] Salmonella abortus equi [Lot # 69F4003] […] Drugs from 2 to 16 mg/kg, I.P. were administered 2 hr prior and 2 hr post-injection of the LPS and then subsequently for every 24 hr for the length ofthe animals' lives. Deaths were recorded every 12 hr and continued for 96 hr. […] In vitro TNFa andIL-1 Measurements and Cellular Regulation IC-21 mouse macrophages were maintained in RPMI-1640 + 10% FCS + P/S. After the cells had grown to confluency, E. coli LPS at 10 Ixg/ml was added to the medium. Agents were incubated at 12.5 to 100 µM final concentration for 18 hr. The medium (100 btl) was collected for TNFCt determinations. Interleukin-1 [IL-1] release was determined using P388D1 cells which were maintained in RPMI-1640 + 10% FCS + P/S. The L929 bioassay was used to quantitate the TNF and the IL-1 levels. The L929 mouse fibroblasts were grown in DMEM + 10% FCS + P/S to confluency in 96 well plates and incubated with 100 tl ofmedium from […] or P388D cells after 18 hr. The cells were stained with 0.2% crystal violet in 20% MeOH and read at 580 nm using a Molecular Devices scanner (SOFT-max program). High Affinity Binding to Receptors on L929-106 Cells Two laCi of 125I-TNFct (human recombinant, 30 mCi/tg New England Nuclear) or 125I-IL-1 (70-120[.t Ci/lxg,New England Nuclear) was added to confluency L929 cells for 90 min or 5 hr, […] The cells were washed repeatedly with isotonic saline, pH.7.2 and aliquots counted. Prostaglandin cylcooxygenase activity Mouse J774AI macrophages maintained in Dulbecco's modified Eagle's medium + 15% FCS + P/S. Cells (5 x 106) were incubated with agents (5 to 100 ].tM final concentration) and 3H-arachidonic acid (100 Ci/mol) for 60 min at 37C in a CO2 incubator. The reaction was terminated with 2N HCI, the mixture extracted 2 X with ether, and the organic layer evaporated.

SMILES	TNFα binding, Percent of Control (5 μM)	TNFα binding, Percent of Control (12.5 μM)	TNFα binding, Percent of Control (25 μM)	TNFα binding, Percent of Control (50 μM)
COc1c2cc(S(=O)(=O)[O-])cc1Cc1cc(S(=O)(=O)[O-])cc(c1OC)Cc1cc(S(=O)(=O)[O-])cc(c1OC)Cc1cc(S(=O)(=O)[O-])cc(c1OC)Cc1cc(S(=O)(=O)[O-])cc(c1OC)Cc1cc(S(=O)(=O)[O-])cc(c1OC)C2.[Na+].[Na+].[Na+].[Na+].[Na+].[Na+] [Compound 6]	61 + 5% of Control	39 + 4% of Control	24 + 3% of Control	36 + 5% of Control
CC(=O)Oc1c2cc(S(=O)(=O)[O-])cc1Cc1cc(S(=O)(=O)[O-])cc(c1OC(C)=O)Cc1cc(S(=O)(=O)[O-])cc(c1OC(C)=O)Cc1cc(S(=O)(=O)[O-])cc(c1OC(C)=O)Cc1cc(S(=O)(=O)[O-])cc(c1OC(C)=O)Cc1cc(S(=O)(=O)[O-])cc(c1OC(C)=O)Cc1cc(S(=O)(=O)[O-])cc(c1OC(C)=O)Cc1cc(S(=O)(=O)[O-])cc(c1OC(C)=O)C2.[Na+].[Na+].[Na+].[Na+].[Na+].[Na+].[Na+].[Na+] [Compound 8]	59 + 6% of Control	–	23 + 4% of Control	37 + 4% of Control
